Like-named read-outs stand apart in the source and are kept apart here.
Experiments:
[1] = test system: Key Broadleaf Weed and Crop Species; experiment: Post-emergent Test II herbicidal activity (Table 5); format: in vivo; settings: post-emergence, 336 h, post-emergent, 14 days after application; for pest or weed control at 70 g/ha: 70 g ai/ha; for pest or weed control at 140 g/ha: 140 g ai/ha
Summary of the method: (§1)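 Plants grown in Metro-Mix 360 (pH 6.0–6.8) in a greenhouse (~15 h photoperiod, 23–29 °C day) to first or second true leaf stage, then sprayed with compound in acetone/DMSO/aqueous crop-oil-surfactant carrier at 187 L/ha by track sprayer. Injury visually scored 0–100% versus untreated plants after 14 d.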

[2] = test system: Key Grass and Sedge Weeds as well as Grass Crops; experiment: Post-emergent Test II herbicidal activity (Table 6); format: in vivo; settings: post-emergence, 336 h; for pest or weed control at 70 g/ha: application rate 70 g ai/ha; for pest or weed control at 140 g/ha: application rate 140 g ai/ha
Summary of the method: as §1

[3] = ABUTH: velvetleaf (Abutilon theophrasti), read-out: Visual Growth Reduction (%) 14 Days After Application ABUTH
[4] = AMARE: redroot pigweed (Amaranthus retroflexus), read-out: Visual Growth Reduction (%) 14 Days After Application AMARE
[5] = BRSNN: oilseed-rape, canola (Brassica napus), read-out: Visual Growth Reduction (%) 14 Days After Application BRSNN
[6] = CHEAL: lambsquarters (Chenopodium album), read-out: Visual Growth Reduction (%) 14 Days After Application CHEAL
[7] = EPHHL: wild poinsettia (Euphorbia heterophylla), read-out: Visual Growth Reduction (%) 14 Days After Application EPHHL
[8] = HELAN: sunflower (Helianthus annuus), read-out: Visual Growth Reduction (%) 14 Days After Application HELAN
[9] = VIOTR: wild pansy (Viola tricolor), read-out: Visual Growth Reduction (%) 14 Days After Application VIOTR
[10] = CYPES: yellow nutsedge (Cyperus esculentus), read-out: Visual Growth Reduction (%) 14 Days After Application, CYPES
[11] = DIGSA: crabgrass (Digitaria sanguinalis), read-out: Visual Growth Reduction (%) 14 Days After Application, DIGSA
[12] = ECHCG: barnyardgrass (Echinochloa crus-galli), read-out: Visual Growth Reduction (%) 14 Days After Application, ECHCG
[13] = ORYSA: rice (Oryza sativa), read-out: Visual Growth Reduction (%) 14 Days After Application, ORYSA
[14] = SETFA: giant foxtail (Setaria faberi), read-out: Visual Growth Reduction (%) 14 Days After Application, SETFA
[15] = SORVU: grain sorghum (Sorghum vulgare), read-out: Visual Growth Reduction (%) 14 Days After Application, SORVU
[16] = TRZSS (wheat, Triticum aestivum), read-out: Visual Growth Reduction (%) 14 Days After Application, TRZSS
[17] = ZEAMX: maize, corn (Zea mays), read-out: Visual Growth Reduction (%) 14 Days After Application, ZEAMX

Work on `COC(=O)c1nc(-c2cc(F)c(C(F)F)cc2F)cc(N)c1Cl` [Compound 205] yielded a melting point of 141.8 to 145 °C, a pest or weed control at 70 g/ha [1, 3] of 95 to 100% and a pest or weed control at 140 g/ha [1, 3] of 95 to 100%. The pest or weed control at 70 g/ha [1, 4] was 95 to 100%, the pest or weed control at 140 g/ha [1, 4] was 95 to 100% and the pest or weed control at 70 g/ha [1, 5] was 60 to 74%. It also gave a pest or weed control at 140 g/ha [1, 5] of 85 to 94%, a pest or weed control at 70 g/ha [1, 6] of 95 to 100% and a pest or weed control at 140 g/ha [1, 6] of 95 to 100%. It also gave a pest or weed control at 70 g/ha [1, 7] of 95 to 100%, a pest or weed control at 140 g/ha [1, 7] of 95 to 100% and a pest or weed control at 70 g/ha [1, 8] of 85 to 94%. The pest or weed control at 140 g/ha [1, 8] was 95 to 100%, the pest or weed control at 70 g/ha [1, 9] was 45 to 59% and the pest or weed control at 140 g/ha [1, 9] was 60 to 74%. For the same molecule, the pest or weed control at 70 g/ha [2, 10] was 85 to 94%, the pest or weed control at 140 g/ha [2, 10] was 95 to 100% and the pest or weed control at 70 g/ha [2, 11] was 30 to 44%. It also gave a pest or weed control at 140 g/ha [2, 11] of 45 to 59%, a pest or weed control at 70 g/ha [2, 12] of 85 to 94% and a pest or weed control at 140 g/ha [2, 12] of 85 to 94%. It also gave a pest or weed control at 70 g/ha [2, 13] of 0 to 29%, a pest or weed control at 140 g/ha [2, 13] of 0 to 29% and a pest or weed control at 70 g/ha [2, 14] of 45 to 59%. It also gave a pest or weed control at 140 g/ha [2, 14] of 75 to 84%, a pest or weed control at 70 g/ha [2, 15] of 60 to 74% and a pest or weed control at 140 g/ha [2, 15] of 75 to 84%. For the same molecule, the pest or weed control at 70 g/ha [2, 16] was 0 to 29%, the pest or weed control at 140 g/ha [2, 16] was 30 to 44% and the pest or weed control at 70 g/ha [2, 17] was 30 to 44%. For the same molecule, the pest or weed control at 140 g/ha [2, 17] was 60 to 74%.

With `COC(=O)c1nc(-c2cc(F)c(C#N)cc2F)nc(N)c1OC` [Compound 208] the melting point was 165 to 166.5 °C, the pest or weed control at 70 g/ha [1, 3] was 0 to 29% and the pest or weed control at 140 g/ha [1, 3] was 0 to 29%. For the same molecule, the pest or weed control at 70 g/ha [1, 4] was 0 to 29%, the pest or weed control at 140 g/ha [1, 4] was 0 to 29% and the pest or weed control at 70 g/ha [1, 5] was 0 to 29%. It also gave a pest or weed control at 140 g/ha [1, 5] of 0 to 29%, a pest or weed control at 70 g/ha [1, 6] of 0 to 29% and a pest or weed control at 140 g/ha [1, 6] of 0 to 29%. The pest or weed control at 70 g/ha [1, 7] was 30 to 44%, the pest or weed control at 140 g/ha [1, 7] was 45 to 59% and the pest or weed control at 70 g/ha [1, 8] was 0 to 29%. For the same molecule, the pest or weed control at 140 g/ha [1, 8] was 45 to 59%, the pest or weed control at 70 g/ha [1, 9] was 0 to 29% and the pest or weed control at 140 g/ha [1, 9] was 0 to 29%. The pest or weed control at 70 g/ha [2, 10] was 0 to 29%, the pest or weed control at 140 g/ha [2, 10] was 0 to 29% and the pest or weed control at 70 g/ha [2, 11] was 0 to 29%. For the same molecule, the pest or weed control at 140 g/ha [2, 11] was 0 to 29%, the pest or weed control at 70 g/ha [2, 12] was 0 to 29% and the pest or weed control at 140 g/ha [2, 12] was 0 to 29%. The pest or weed control at 70 g/ha [2, 13] was 0 to 29%, the pest or weed control at 140 g/ha [2, 13] was 0 to 29% and the pest or weed control at 70 g/ha [2, 14] was 0 to 29%. The pest or weed control at 140 g/ha [2, 14] was 0 to 29%, the pest or weed control at 70 g/ha [2, 15] was 0 to 29% and the pest or weed control at 140 g/ha [2, 15] was 0 to 29%. It also gave a pest or weed control at 70 g/ha [2, 16] of 0 to 29%, a pest or weed control at 140 g/ha [2, 16] of 0 to 29% and a pest or weed control at 70 g/ha [2, 17] of 0 to 29%. For the same molecule, the pest or weed control at 140 g/ha [2, 17] was 0 to 29%.

From patent US9113629B2, “4-amino-6-(4-substituted-phenyl)-picolinates and 6-amino-2-(4-substituted-phenyl)-pyrimidine-4-carboxylates and their use as herbicides” (DOW AGROSCIENCES LLC, priority 2013, dated 2015)
